Legend:
Format in all cases: cell-based, human
[1] = test system: Tumor sections; experiment: FACS analysis for CD25, CD127 and FOXP3 expression, tumor sections
Method: (§1) The effect of treatment with Nivolumab and Pembrolizumab on CD25, CD127, and FOXP3 expression was then evaluated. Tumor sections or PBNCs from the same patient cultured for 3 days in the tumor microenvironment platform were treated with Pembrolizumab, Nivolumab, or IgG control for one day followed by FACS analysis for expression of CD25, CD127, and FOXP3.

[2] = test system: HNSCC tumor tissue; experiment: M-score clinical outcome predictor: tumor microenvironment platform assays (WST-1, LDH, ATP, glucose uptake, Caspase 3/8, Ki67, H&E) input into machine-trained algorithm; design: scale not given here
[3] = test system: PBNCs; experiment: FACS analysis for CD25, CD127 and FOXP3 expression, PBNCs
Method: as §1

**Q.** What does the source list for Pembrolizumab?
**A.** CD25^+/FOXP3^− Tumor (% total cells) ([1]; Non-Responder, control 6.52): 5.03 % total cells; CD25^+/CD127^+ Tumor (% total cells) ([1]; Non-Responder, control 19.6): 17.8 % total cells; CD25^−/CD127^− Tumor (% total cells) ([1]; Non-Responder, control 22.1): 24.9 % total cells; CD25^−/FOXP3^− Tumor (% total cells) ([1]; Non-Responder, control 23.6): 10.7 % total cells; CD25^+/CD127^− Tumor (% total cells) ([1]; Non-Responder, control 25.4): 24.3 % total cells; CD25^−/CD127^+ Tumor (% total cells) ([1]; Non-Responder, control 33.0): 32.9 % total cells; CD25^+/FOXP3^+ Tumor (% total cells) ([1]; Non-Responder, control 34.4): 35.8 % total cells; CD25^− FOXP3^+ Tumor (% total cells) ([1]; Non-Responder, control 35.5): 48.4 % total cells; CD25^−/CD127^− Tumor (% total cells) ([1]; Responder, control 12.2): 18.4 % total cells; CD25^− FOXP3^+ Tumor (% total cells) ([1]; Responder, control 18.9): 42.5 % total cells; CD25^−/FOXP3^− Tumor (% total cells) ([1]; Responder, control 20.3): 6.67 % total cells; CD25^+/CD127^− Tumor (% total cells) ([1]; Responder, control 23.0): 17.7 % total cells; CD25^−/CD127^+ Tumor (% total cells) ([1]; Responder, control 24.3): 31.2 % total cells; CD25^+/FOXP3^− Tumor (% total cells) ([1]; Responder, control 25.7): 5.83 % total cells; CD25^+/FOXP3^+ Tumor (% total cells) ([1]; Responder, control 35.1): 45.0 % total cells; CD25^+/CD127^+ Tumor (% total cells) ([1]; Responder, control 40.5): 32.6 % total cells; functional Treg cells (CD25, CD127, FOXP3 FACS) ([1]; platform containing tumor tissue): patient sample-dependent functional Treg cell depression; M-score ([2]; Patient ID 2916): 8; M-score ([2]; Patient ID 2926): 28; M-score ([2]; Patient ID 2939): 4; M-score ([2]; Patient ID 2942): 18; M-score ([2]; Patient ID 2950): 13; M-score ([2]; Patient ID 2963): 9; M-score ([2]; Patient ID 2979): 27; M-score ([2]; Patient ID 2980): 19; CD25^+/FOXP3^− PBMCs (% total cells) ([3]; Non-Responder, control 3.67): 2.8 % total cells; CD25^+/CD127^+ PBMCs (% total cells) ([3]; Non-Responder, control 14.6): 25.6 % total cells; CD25^+/CD127^− PBMCs (% total cells) ([3]; Non-Responder, control 15.1): 7.71 % total cells; CD25^−/FOXP3^− PBMCs (% total cells) ([3]; Non-Responder, control 18.2): 10.9 % total cells; CD25^+/FOXP3^+ PBMCs (% total cells) ([3]; Non-Responder, control 22.1): 29.1 % total cells; CD25^−/CD127^+ PBMCs (% total cells) ([3]; Non-Responder, control 26.2): 45.3 % total cells; CD25^−/CD127^− PBMCs (% total cells) ([3]; Non-Responder, control 44.1): 21.4 % total cells; CD25^− FOXP3^+ PBMCs (% total cells) ([3]; Non-Responder, control 56.0): 57.2 % total cells; CD25^+/FOXP3^− PBMCs (% total cells) ([3]; Responder, control 3.04): 3.94 % total cells; CD25^+/CD127^− PBMCs (% total cells) ([3]; Responder, control 11.7): 7.77 % total cells; CD25^+/CD127^+ PBMCs (% total cells) ([3]; Responder, control 16.8): 20.4 % total cells; CD25^+/FOXP3^+ PBMCs (% total cells) ([3]; Responder, control 21.7): 22.1 % total cells; CD25^−/FOXP3^− PBMCs (% total cells) ([3]; Responder, control 23.2): 20.0 % total cells; CD25^−/CD127^+ PBMCs (% total cells) ([3]; Responder, control 24.8): 46.4 % total cells; CD25^−/CD127^− PBMCs (% total cells) ([3]; Responder, control 46.6): 25.4 % total cells; CD25^− FOXP3^+ PBMCs (% total cells) ([3]; Responder, control 52.1): 54.0 % total cells
